Data set [1] concerns Candida albicans ATCCe 10231. Put plainly: minimum inhibiting concentration, microtitration in liquid medium, C. albicans. It counts as cell-based. To be noted: ATCCE10231, RPMI + 20% foetal calf serum, overnight, inoculum 10^5 to 10^6 organisms/ml. On the procedure: (§1) The activity of the new derivatives according to the invention was tested in vitro by determining the minimum inhibiting concentration (MIC) of the molecules and their fungicidal (minimum fungicidal concentration MFC) or bactericidal (minimum bactericidal concentration MBC) activity. MFC and MBC are defined as the minimum dose which kills 99.9% of the organisms contained in the inoculum. Two species of yeasts pathogenic to man were used: Candida albicans ATCCe 10231 and Candida tropicalis ATCC 13803. Two species of bacteria were included in the screening: Staphylococcus aureus ATCC 25923 and Salmonella typhimurium LT2, strain Demerec. The MIC is determined after culturing overnight in a liquid medium, by the microtitration method in dishes containing 96 wells over a concentration range of 100 μM to 0.0008 μM. The inoculum contains 10^5 to 10^6 organisms/ml. The culture media consist on the one hand of RPMI to which 20% of foetal calf serum (inactivated for one hour at 56°) has been added in order to determine the fungistatic activity and Mueller-Hinton agar in order to determine the bacteriostatic power of the newly synthesized molecules on the other. The MFC and MBC for each of these molecules are obtained by subculturing a sample containing 10^3 organisms from each well giving negative results for the growth of the organisms, in a solid medium consisting of YM agar (yeasts) or Mueller-Hinton agar (bacteria) overnight at 37°.

For data set [2], the system named is Candida tropicalis ATCC 13803. Put plainly: minimum inhibiting concentration, microtitration in liquid medium, C. tropicalis. Type of data set: cell-based. To be noted: ATCC13803, RPMI + 20% foetal calf serum, overnight, inoculum 10^5 to 10^6 organisms/ml. On the procedure: as §1
Data set [3] relates to Staphylococcus aureus ATCC 25923. The data set can be described thus: minimum inhibiting concentration, microtitration in liquid medium, S. aureus. To be noted: ATCC25923, Mueller-Hinton, overnight, inoculum 10^5 to 10^6 organisms/ml, read-out: MIC S. aureus. Type of data set: cell-based. On the procedure: as §1
Data set [4] deals with Salmonella typhimurium LT2, strain Demerec. Put plainly: minimum inhibiting concentration, microtitration in liquid medium, S. typhimurium. Type of data set: cell-based. As to conditions: Salmonella enterica, Mueller-Hinton, overnight, inoculum 10^5 to 10^6 organisms/ml, read-out: MIC S. typhimurium. On the procedure:
as §1

The test system of data set [5] is Candida albicans ATCCe 10231. The data set can be described thus: minimum fungicidal concentration, subculture on YM agar, C. albicans. Type of data set: cell-based. To be noted: ATCCE10231, minimum dose which kills 99.9% of the organisms, YM agar, overnight at 37°, read-out: MFC C. albicans. On the procedure:
as §1

Data set [6] concerns Candida tropicalis ATCC 13803. The data set can be described thus: minimum fungicidal concentration, subculture on YM agar, C. tropicalis. Type of data set: cell-based. To be noted: ATCC13803, minimum dose which kills 99.9% of the organisms, YM agar, overnight at 37°, read-out: MFC C. tropicalis. On the procedure: as §1
The test system of data set [7] is Staphylococcus aureus ATCC 25923. The data set can be described thus: minimum bactericidal concentration, subculture on Mueller-Hinton agar, S. aureus. It counts as cell-based. As to conditions: ATCC25923, minimum dose which kills 99.9% of the organisms (MBC), overnight at 37°, read-out: MFC S. aureus. On the procedure: as §1
Data set [8] can be described thus: resorption: plasma concentration in rats after gastric administration. It counts as in vivo. To be noted: rat, po, 1000 umol/kg, 100 μmols/0.5 ml of DMSO per 100 g of body weight, Candida tropicalis inhibition zones vs ketoconazole standard curve, read-out: plasma concentration of the antifungal product. On the procedure:
100 μmols/0.5 ml of DMSO per 100 g of body weight of either ketoconazole (reference product) or oleylketoconazole (compound No. 7) are administered to rats by the gastric route. The animals are sacrificed with CO2, 1 h after the administration. Blood is sampled by cardiac puncture and centrifuged for 15 minutes at 2000 rpm to obtain the plasma.
A series of dilutions of the plasma samples are prepared in a 0.9% NaCl solution, diluting twice each time. 10 μl are sampled from each dilution and deposited on Whatman paper discs. The discs are placed in Petri dishes containing 15 ml of casitone agar covered with a layer containing 3 ml of a less dense agar mixed with 0.1 ml of an overnight culture of Candida tropicalis. After incubating overnight the growth inhibition zones around the disks are measured and compared with a standard curve prepared with ketoconazole under the same conditions.

The subject of data set [9] is Leydig tumor cells from mice (I-10, ATCC No. CCL83). Put plainly: in vitro synthesis of steroids: progesterone secretion by Leydig tumor cells induced by cAMP. It counts as cell-based. To be noted: 9.4×10^-7 M. From the text:
(§2) Ketoconazole and its derivatives reduce the plasma levels of testosterone by inhibiting certain enzymes involved in its biogenesis. Progesterone is a key intermediate in the biogenesis of steroid hormones as it leads especially to estradiol in the ovary and to testosterone in the testicles. The inhibiting power of ketoconazole and its derivatives on the enzyme chain for the biogenesis of steroid hormones may be assessed by measuring the conversion of cholesterol into progesterone. A method of determination which enables this property to be quantified is described below.
(§3) Leydig tumor cells from mice (I-10, ATCC No. CCL83) were grown in a HAM's F10 medium to which 15% of horse serum and 2.5% of foetal calf serum were added. These cells have the property of secreting progesterone and a product of reduction of the latter which is no longer metabolized, 20α-hydroxy-4-pregnen-3-one. This secretion of steroids is induced by the addition of cAMP in the form of its dibutyryl ester (N^6, O^2' -dibutyryladenosine 3', 5'-cyclic monophosphate sodium salt monohydrate (Sigma)). The cells are subcultured in 25 cm^2 falcon dishes and maintained under CO2 (10%). When these become confluent (±1 mg/ml proteins) the medium is replaced with fresh medium containing dibutyryl-cAMP (1×10^-4 M). After incubating for 1 hour with the cAMP, the ketoconazole or its derivatives are added (9.4×10^-7 M) to the culture medium. After incubating for a further period of 3 hours, the supernatants are collected and will be used for the analysis of steroids by HPLC. The cells are rinsed with PBS (phosphate buffered saline: NaCl 0.15M, KCl 2.7 mM, Na2 HPO4 -KH2 PO4 3 mM pH 7.4) and after treating with DOC (deoxycholic acid), the determination of proteins is carried out by the Lowry method.
(§4) For the determination of steroids, 2 ml of the culture medium are brought into contact with 5 ml of ether. The tubes are vortexed for 2 minutes. After freezing the aqueous phases in an isopropanol/solid carbon dioxide bath, the ether phase is collected and the ether is evaporated off under a stream of nitrogen at 30° C. The dry extract is then diluted in 150 μl of water and 150 μl of acetonitrile and centrifuged at 13,000 rpm for 10 minutes. 30 μl of the supernatant are injected into HPLC on a 4 mm diameter, 30 cm long μBondapack C18 column (WATERS). The mobile phase consists of 38% of water, 31% acetonitrile and 31% methanol. The flowrate is 2 ml/min and readings are taken at 245 nm.

For data set [10] the test system is unchanged. The data set can be described thus: in vitro synthesis of steroids: 20α-hydroxy-4-pregnen-3-one secretion by Leydig tumor cells induced by cAMP. Type of data set: cell-based. As to conditions: 9.4×10^-7 M.
From the text: as §2, §3, §4

One may read the MIC as the lowest concentration found to suppress growth. Broadly, the MFC is the lowest tested concentration that kills the fungus rather than only halting it.

Values after ≈ are worked out from the molar mass of the structure shown. Some results are limits rather than exact numbers.

In the case of `CCCCCCCCC=CCCCCCCCC(=O)N1CCN(c2ccc(OCC3COC(Cn4ccnc4)(c4ccc(Cl)cc4Cl)O3)cc2)CC1` (stereo not drawn) [No. 7], the minimum inhibitory concentration (MIC) in [1] is 10.2 µM; in data set [2], 8.78 µM; in [3], above 100 µM; in data set [4] it was above 100 µM. The values for the MFC in data set [5] and in data set [6] were 125 µM (≈ 94.2 µg/mL) and 250 µM (≈ 188 µg/mL), respectively. Further, the MBC in data set [7] is above 100 µM. Besides, the concentration at 1 h in data set [8] came to 57.3 µM. Besides, the “Progesterone (1)” value in data set [9] (dibutyryl-cAMP 1×10^-4 M, 3 hours incubation with compound, control 3546, basal 554) is 2754 ng of steroids/mg of cell prot. Further, the progesterone secretion, % of cAMP-induced control at 0.94 µM in [9] (Mus musculus, Leydig, relative to cells induced by cAMP in the absence of inhibitor, read-out: Progesterone (2) % enzyme activity relative to control) was 78%. Further, in [10] (dibutyryl-cAMP 1×10^-4 M, 3 hours incubation with compound, control 1744, basal 785), the “20α-OH-4-pregnen-3-one (1)” value is 1497 ng of steroids/mg of cell prot. The activity at 0.94 µM in data set [10] (Mus musculus, Leydig, relative to cells induced by cAMP in the absence of inhibitor, read-out: 20α-OH-4-pregnen-3-one (2) % enzyme activity relative to control) worked out at 86%.

The values are drawn from patent US4789587A, “(1,3-dioxolan-2-yl-methyl)-1H-imidazoles as bactericidal and/or fungicidal agents” (IRE-Celltarg, S.A., priority 1986, dated 1988).
